Assay results from US8093284B2, “Process for producing aqueous solution of doripenem” (Shionogi & Co., Ltd., priority 2005, dated 2012).

How the values were obtained:
Assay type in all cases: physicochemical
[1] = Decomposition of doripenem on heating and dissolving an aqueous suspension in a batch manner; conditions: heating medium around 60° C., solution around 55° C., measured immediately after dissolution, 15.5 kg in 280 L water
Method: An aqueous suspension of doripenem (aqueous suspension in which 15.5 kg of doripenem had been mixed with 280 L of water) was cooled to 10° C. or lower to suppress decomposition during waiting. This aqueous suspension was dissolved as it was using a heating medium at around 60° C. to obtain an aqueous solution of doripenem, at around 55° C. A decomposition degree of doripenem measured immediately after dissolution of doripenem was about 7%.

[2] = Decomposition of doripenem on heating and dissolving an aqueous suspension with a continuous heating and dissolving equipment; conditions: continuous heating; position of 28 m of the equipment; heating source around 60° C., about 6 L/min, solution around 55° C. at outlet; 15.5 kg in 280 L water
Method: An aqueous suspension of doripenem (aqueous suspension in which 15.5 kg of doripenem had been mixed with 280 L of water) was cooled to 10° C. or lower to suppress decomposition during waiting. This aqueous suspension was passed through a continuous heating and dissolving equipment of an inner diameter of around 23 mm and a length of around 28 m, having a heating source at around 60° C. at about 6 L/min, and elevation in a temperature and dissolution were performed during passage through the machine to obtain an aqueous solution of doripenem at around 55° C. at an outlet of the dissolving machine. A decomposition degree of doripenem at a position of 28 m of the continuous heating and dissolving equipment was about 0.2%.

[3] = Decomposition of doripenem in an aqueous solution at 40, 50 or 60° C.; conditions: aqueous solution at 40° C., 50° C., or 60° C.
Method: Decomposition of doripenem in an aqueous solution of doripenem at 40° C., 50° C., or 60° C. was examined. […] FIG. 2, FIG. 3 and FIG. 4 show a doripenem decomposition curve at each temperature.

Q: For C[C@@H](O)[C@H]1C(=O)N2C(C(=O)O)=C(S[C@@H]3CN[C@H](CNS(N)(=O)=O)C3)[C@H](C)[C@H]12 [doripenem], which “decomposition degree of doripenem” value [1] is on record?
A: The value was “about 7%”.

Q: What about the “decomposition degree of doripenem” value [2] of the same compound?
A: Its value is “about 0.2%”.

Q: What about the “decomposition of doripenem in aqueous solution” value [3] of the same compound?
A: The value was “decomposed at these temperatures with time”.
